These results are taken from patent US8288386B2, “Melanocortin receptor agonists” (LG Life Sciences Ltd., priority 2008, dated 2012).

In this experiment the target is T1, MC4R (Homo sapiens, UniProt P32245).
T1 construct: expressed in transfected cells; host or cells: HEK (Human Embryonic Kidney) permanent expression cell line HEK MC4R-Luc, with CRE-LUC reporter
Briefly: MCR agonistic activity (luciferase assay / cAMP accumulation assay) in HEK MC4R-Luc cells. The format is cell-based. As to conditions: agonistic activity to MC4R; ranges given; read-out: EC50 value in the range. The protocol:
Physiological activity of the compounds of the present invention was assessed by measuring agonistic activity as well as binding activity for melanocortin receptors (MCR) according to methods A and B explained as follows.
As one of the methods to measure MCR agonistic activity of the compound according to the present invention, the expression level of a marker gene (for example, luciferase) which increases proportionally according to the increase of cAMP content in the cell, was measured.
First, permanent expression HEK (Human Embryonic Kidney) cell lines (HEK MC1R-Luc, MC3R-Luc, MC4R-Luc or MC5R-Luc) expressing the MCR gene of each subtype together with luciferase gene (CRE-LUC) under the control of CRE (cAMP Response Element) were constructed. The above cell lines were incubated in an incubator with 6% CO2 atmosphere at 37° C. using selection medium, DMEM (Dulbecco's Modified Eagles Medium) containing 10% heat-inactivated fetal bovine serum (Gibco/BRL), 100 unit/ml, penicillin (Gibco/BRL), 100 unit/ml streptomycin (Gibco/BRL), and 200 μg/ml geneticin (G418) (Gibco/BRL). […] After allowing the treated cells to be at room temperature for 15 minutes, luminescence was measured for each well by using luminometer (Victor). The level of luminescence induced by the stepwise-diluted agonist was converted to relative % value to those by the treatment of 10 μM NDP-MSH. […]
As another method to measure MCR agonistic activity of the compound according to the present invention, an increase of cAMP amount in the cell was measured.
First, permanent expression HEK (Human Embryonic Kidney) cell lines (HEK MC1R-Luc, MC3R-Luc, MC4R-Luc or MC5R-Luc) expressing the MCR gene of each subtype were plated onto each well of 24-well culture plates for Luminometer (Costar) with a concentration of 2×10^5 cell in 1 ml culture medium for each well, and then incubated in an incubator with 6% CO2 atmosphere at 37° C. for 24 hours. […] Then, the cAMP amount in each cell was measured using Amersham cAMP assay Kit (TRK432). […]
(Changes in cAMP serve as a functional read-out for many G protein-coupled receptors.)

T1 sequence (P32245 whole entry, species assumed): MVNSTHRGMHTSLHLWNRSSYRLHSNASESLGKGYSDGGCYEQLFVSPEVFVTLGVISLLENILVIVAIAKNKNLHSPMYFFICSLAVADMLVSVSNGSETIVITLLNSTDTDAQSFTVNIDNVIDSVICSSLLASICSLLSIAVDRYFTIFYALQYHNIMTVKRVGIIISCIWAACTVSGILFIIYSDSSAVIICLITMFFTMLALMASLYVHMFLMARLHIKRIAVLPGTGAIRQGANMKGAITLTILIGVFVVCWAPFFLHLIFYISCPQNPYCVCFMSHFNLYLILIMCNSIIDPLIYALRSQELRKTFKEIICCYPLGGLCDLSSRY

Regarding `CN1CCN(C(=O)[C@@H]2C[C@H](N(C(=O)c3ccco3)c3ccc(F)cc3F)CN2C(=O)[C@@H]2CN(C(C)(C)C)C[C@H]2c2ccc(F)cc2F)CC1` [Example 84, N-{(3S,5S)-1-{[(3S,4R)-1-tert-butyl-4-(2,4-difluorophenyl)pyrrolidin-3-yl]carbonyl}-5-[(4-methylpiperazin-1-yl)carbonyl]pyrrolidin-3-yl}-N-(2,4-difluorophenyl)-2-furamide], the EC50 (commonly the concentration needed to bring the measured effect to its halfway point) fell in the range of 100 to 1000 nM.

Consider `CC(=O)N(C1CCC(F)(F)CC1)[C@H]1C[C@@H](C(=O)N2CCN(C)CC2)N(C(=O)[C@@H]2CN(C(C)(C)C)C[C@H]2c2ccc(Cl)cc2)C1` [Example 27, N-{(3S,5S)-1-{[(3S,4R)-1-tert-butyl-4-(4-chlorophenyl)pyrrolidin-3-yl]carbonyl}-5-[(4-methylpiperazin-1-yl)carbonyl]pyrrolidin-3-yl}-N-(4,4-difluorocyclohexyl)acetamide], for which the EC50 is 100 to 1000 nM.

With `CC(C)C(=O)N(c1ccc(F)cc1F)[C@H]1C[C@@H](C(=O)N2CCN(C)CC2)N(C(=O)[C@@H]2CN(C(C)(C)C)C[C@H]2c2ccc(Cl)cc2)C1` [Example 79, N-{(3S,5S)-1-{[(3S,4R)-1-tert-butyl-4-(4-chlorophenyl)pyrrolidin-3-yl]carbonyl}-5-[(4-methylpiperazin-1-yl)carbonyl]pyrrolidin-3-yl}-N-(2,4-difluorophenyl)-2-methylpropanamide], the EC50 lay within 10 to 100 nM.
